Measured values: patent US20250353891A1 (MEDIMMUNE LIMITED, priority 2022, published 2025)
pEC50: −log10 of the molar value. Values belong to the compound of their own block, whether it stands above or below them. Starred links: 1 amine or outer side, 2 acyl side, 3 side chain; linkers in the order of their positions; H or OH if unused. Non-standard residues stand in square brackets, D forms with d. Residues, ends and D or L forms follow the SMILES beside them. Groups on a side chain read outwards from the residue. *: point of attachment. C20 diacid = O=C(O)CCCCCCCCCCCCCCCCCCC(=O)*; C18 diacid = O=C(O)CCCCCCCCCCCCCCCCC(=O)*; γGlu = O=C(O)[C@H](CCC(=O)[*:2])N[*:1]; αMeF = C[C@](N)(Cc1ccccc1)C(=O)O; AEEA = NCCOCCOCC(=O)O; Aib = CC(C)(N)C(=O)O

Assays:
[1] = target: human GLP-1 receptor (hGLP-1R) (Homo sapiens, UniProt P43220); experiment: cAMP production (HTRF) in CHO cells expressing hGLP-1R; type: cell-based; parameters: expressed in transfected cells; conditions: for pEC50: Table 6, peptides modified at position 17, cAMP in CHO hGLP-1R cells, geometric mean, read-out: hGLP-1R EC50; for % Relative Potency Ratio: Table 6, % GLP-1R activity relative to GLP-1 / % GlucR activity relative to glucagon
Sequence of human GLP-1 receptor (hGLP-1R) (P43220 24-463): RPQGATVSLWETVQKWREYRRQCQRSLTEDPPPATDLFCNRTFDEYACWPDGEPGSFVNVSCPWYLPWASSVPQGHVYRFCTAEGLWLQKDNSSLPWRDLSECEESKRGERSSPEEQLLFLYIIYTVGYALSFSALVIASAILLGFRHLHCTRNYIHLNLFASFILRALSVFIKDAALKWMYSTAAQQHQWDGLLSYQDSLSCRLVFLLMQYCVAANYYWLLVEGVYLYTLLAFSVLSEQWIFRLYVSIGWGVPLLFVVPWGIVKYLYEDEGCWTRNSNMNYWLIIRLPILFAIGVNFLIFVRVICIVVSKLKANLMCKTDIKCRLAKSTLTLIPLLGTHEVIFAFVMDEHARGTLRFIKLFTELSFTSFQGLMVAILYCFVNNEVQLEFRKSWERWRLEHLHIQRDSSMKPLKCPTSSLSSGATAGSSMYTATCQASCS
Summary of the method: (§1)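 Read-out: HTRF cAMP (anti-cAMP cryptate donor, cAMP-d2 acceptor in conjugate/lysis buffer), converted to % Delta F and fitted by 4-parameter logistic for EC50. Cell densities were 1×10^5 cells/mL (hGLP-1R) or 2×10^5 cells/mL (hGCGR). Stimulation lasted 30 min at room temperature.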

[2] = target: human glucagon receptor (hGCGR) (Homo sapiens, UniProt P47871); experiment: cAMP production (HTRF) in CHO cells expressing hGCGR; type: cell-based; parameters: expressed in transfected cells; conditions: Table 6, peptides modified at position 17; cAMP in CHO hGCGR cells; geometric mean; read-out: hGluc-R EC50
Sequence of human glucagon receptor (hGCGR) (P47871 26-477): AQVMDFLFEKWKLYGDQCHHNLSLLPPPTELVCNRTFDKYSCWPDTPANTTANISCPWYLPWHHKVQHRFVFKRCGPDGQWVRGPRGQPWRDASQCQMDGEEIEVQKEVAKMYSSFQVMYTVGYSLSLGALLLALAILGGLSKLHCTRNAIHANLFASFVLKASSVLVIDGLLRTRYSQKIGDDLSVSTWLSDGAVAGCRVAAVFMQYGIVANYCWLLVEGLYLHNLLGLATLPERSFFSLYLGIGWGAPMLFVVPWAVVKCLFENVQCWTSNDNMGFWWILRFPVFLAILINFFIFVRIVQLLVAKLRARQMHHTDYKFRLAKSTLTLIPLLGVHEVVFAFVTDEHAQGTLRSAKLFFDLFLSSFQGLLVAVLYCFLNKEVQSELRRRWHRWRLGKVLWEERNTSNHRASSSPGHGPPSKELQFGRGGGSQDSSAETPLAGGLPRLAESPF
Summary of the method: as §1

SMILES: CC(C)C[C@H](NC(=O)[C@H](Cc1c[nH]c2ccccc12)NC(=O)[C@H](CCC(N)=O)NC(=O)[C@@H](NC(=O)[C@H](Cc1ccccc1)NC(=O)[C@H](CC(=O)O)NC(=O)[C@H](CCC(N)=O)NC(=O)[C@H](C)NC(=O)[C@H](CCCNC(=N)N)NC(=O)[C@H](CCCCNC(=O)COCCOCCNC(=O)COCCOCCNC(=O)CC[C@H](NC(=O)CCCCCCCCCCCCCCCCC(=O)O)C(=O)O)NC(=O)[C@@H](NC(=O)[C@H](CC(=O)O)NC(=O)[C@H](CC(C)C)NC(=O)[C@](C)(Cc1ccccc1)NC(=O)[C@H](CCCCN)NC(=O)[C@H](CO)NC(=O)[C@@H](NC(=O)[C@H](CC(=O)O)NC(=O)[C@H](CO)NC(=O)[C@@H](NC(=O)[C@H](Cc1ccccc1)NC(=O)[C@@H](NC(=O)CNC(=O)[C@H](CCC(N)=O)NC(=O)C(C)(C)NC(=O)[C@@H](N)Cc1c[nH]cn1)[C@@H](C)O)[C@@H](C)O)C(C)C)[C@@H](C)O)C(C)C)C(=O)N[C@@H](CC(C)C)C(=O)N[C@@H](CCCNC(=N)N)C(=O)NC(C)(C)C(=O)N[C@@H](C)C(=O)O [Peptide 499] (H-H[Aib]QGTFTSDVSK[αMeF]LDTK([AEEA-AEEA-γGlu-C18 diacid])RAQDFVQWLLR[Aib]A-OH; N-terminus assumed)
pEC50 [1]: 10.39
% Relative Potency Ratio [1]: 3.8
pEC50 [2]: 10.10

SMILES: CC(C)C[C@H](NC(=O)[C@H](Cc1c[nH]c2ccccc12)NC(=O)[C@H](CCC(N)=O)NC(=O)[C@@H](NC(=O)[C@H](Cc1ccccc1)NC(=O)[C@H](CC(=O)O)NC(=O)[C@H](CCC(N)=O)NC(=O)[C@H](C)NC(=O)[C@H](CCCNC(=N)N)NC(=O)[C@H](CCCCNC(=O)COCCOCCNC(=O)COCCOCCNC(=O)CC[C@H](NC(=O)CCCCCCCCCCCCCCCCCCC(=O)O)C(=O)O)NC(=O)[C@@H](NC(=O)[C@H](CC(=O)O)NC(=O)[C@H](CC(C)C)NC(=O)[C@](C)(Cc1ccccc1)NC(=O)[C@H](CCCCN)NC(=O)[C@H](CO)NC(=O)[C@@H](NC(=O)[C@H](CC(=O)O)NC(=O)[C@H](CO)NC(=O)[C@@H](NC(=O)[C@H](Cc1ccccc1)NC(=O)[C@@H](NC(=O)CNC(=O)[C@H](CCC(N)=O)NC(=O)C(C)(C)NC(=O)[C@@H](N)Cc1c[nH]cn1)[C@@H](C)O)[C@@H](C)O)C(C)C)[C@@H](C)O)C(C)C)C(=O)N[C@@H](CC(C)C)C(=O)N[C@@H](CCCNC(=N)N)C(=O)NC(C)(C)C(=O)N[C@@H](C)C(=O)O [Peptide 500] (H-H[Aib]QGTFTSDVSK[αMeF]LDTK([AEEA-AEEA-γGlu-C20 diacid])RAQDFVQWLLR[Aib]A-OH; N-terminus assumed)
pEC50 [1]: 9.99
% Relative Potency Ratio [1]: 2.0
pEC50 [2]: 9.99

SMILES: CC(C)C[C@H](NC(=O)[C@H](Cc1c[nH]c2ccccc12)NC(=O)[C@H](CCC(N)=O)NC(=O)[C@@H](NC(=O)[C@H](Cc1ccccc1)NC(=O)[C@H](CC(=O)O)NC(=O)[C@H](CCCNC(=N)N)NC(=O)[C@H](C)NC(=O)[C@H](CCCNC(=N)N)NC(=O)[C@H](CCCCNC(=O)COCCOCCNC(=O)COCCOCCNC(=O)CC[C@H](NC(=O)CCCCCCCCCCCCCCCCC(=O)O)C(=O)O)NC(=O)[C@@H](NC(=O)[C@H](CC(=O)O)NC(=O)[C@H](CC(C)C)NC(=O)[C@](C)(Cc1ccccc1)NC(=O)[C@H](CCCCN)NC(=O)[C@H](CO)NC(=O)[C@@H](NC(=O)[C@H](CC(=O)O)NC(=O)[C@H](CO)NC(=O)[C@@H](NC(=O)[C@H](Cc1ccccc1)NC(=O)[C@@H](NC(=O)CNC(=O)[C@H](CCC(N)=O)NC(=O)C(C)(C)NC(=O)[C@@H](N)Cc1c[nH]cn1)[C@@H](C)O)[C@@H](C)O)C(C)C)[C@@H](C)O)C(C)C)C(=O)N[C@@H](CC(C)C)C(=O)N[C@@H](CCCNC(=N)N)C(=O)NC(C)(C)C(=O)N[C@@H](C)C(=O)O [Peptide 501] (H-H[Aib]QGTFTSDVSK[αMeF]LDTK([AEEA-AEEA-γGlu-C18 diacid])RARDFVQWLLR[Aib]A-OH; N-terminus assumed)
pEC50 [1]: 10.58
% Relative Potency Ratio [1]: 5.6
pEC50 [2]: 10.12

SMILES: CC(C)C[C@H](NC(=O)[C@H](Cc1c[nH]c2ccccc12)NC(=O)[C@H](CCCNC(=N)N)NC(=O)[C@@H](NC(=O)[C@H](Cc1ccccc1)NC(=O)[C@H](CC(=O)O)NC(=O)[C@H](CCC(N)=O)NC(=O)[C@H](C)NC(=O)[C@H](CCCNC(=N)N)NC(=O)[C@H](CCCCNC(=O)COCCOCCNC(=O)COCCOCCNC(=O)CC[C@H](NC(=O)CCCCCCCCCCCCCCCCCCC(=O)O)C(=O)O)NC(=O)[C@@H](NC(=O)[C@H](CC(=O)O)NC(=O)[C@H](CC(C)C)NC(=O)[C@](C)(Cc1ccccc1)NC(=O)[C@H](CCCCN)NC(=O)[C@H](CO)NC(=O)[C@@H](NC(=O)[C@H](CC(=O)O)NC(=O)[C@H](CO)NC(=O)[C@@H](NC(=O)[C@H](Cc1ccccc1)NC(=O)[C@@H](NC(=O)CNC(=O)[C@H](CCC(N)=O)NC(=O)C(C)(C)NC(=O)[C@@H](N)Cc1c[nH]cn1)[C@@H](C)O)[C@@H](C)O)C(C)C)[C@@H](C)O)C(C)C)C(=O)N[C@@H](CC(C)C)C(=O)N[C@@H](CCC(=O)O)C(=O)NC(C)(C)C(=O)N[C@@H](CCCCN)C(=O)O [Peptide 503]
pEC50 [1]: 10.09
% Relative Potency Ratio [1]: 2.1
pEC50 [2]: 10.07

SMILES: CC(C)C[C@H](NC(=O)[C@H](Cc1c[nH]c2ccccc12)NC(=O)[C@H](CCC(N)=O)NC(=O)[C@@H](NC(=O)[C@H](Cc1ccccc1)NC(=O)[C@H](CC(=O)O)NC(=O)[C@H](CCC(N)=O)NC(=O)[C@H](C)NC(=O)[C@H](CCCNC(=N)N)NC(=O)[C@H](CCCCNC(=O)COCCOCCNC(=O)COCCOCCNC(=O)CC[C@H](NC(=O)CCCCCCCCCCCCCCCCCCC(=O)O)C(=O)O)NC(=O)[C@@H](NC(=O)[C@H](CC(=O)O)NC(=O)[C@H](CC(C)C)NC(=O)[C@](C)(Cc1ccccc1)NC(=O)[C@H](CCCCN)NC(=O)[C@H](CO)NC(=O)[C@@H](NC(=O)[C@H](CC(=O)O)NC(=O)[C@H](CO)NC(=O)[C@@H](NC(=O)[C@H](Cc1ccccc1)NC(=O)[C@@H](NC(=O)CNC(=O)[C@H](CCC(N)=O)NC(=O)C(C)(C)NC(=O)[C@@H](N)Cc1c[nH]cn1)[C@@H](C)O)[C@@H](C)O)C(C)C)[C@@H](C)O)C(C)C)C(=O)N[C@@H](CC(C)C)C(=O)N[C@@H](CCC(=O)O)C(=O)NC(C)(C)C(=O)N[C@@H](CCCCN)C(N)=O [Peptide 505] (H-H[Aib]QGTFTSDVSK[αMeF]LDTK([AEEA-AEEA-γGlu-C20 diacid])RAQDFVQWLLE[Aib]K-NH2)
pEC50 [1]: 10.38
% Relative Potency Ratio [1]: 9.0
pEC50 [2]: 9.72

Continued by rising pEC50 [1], values first:

pEC50 [1]: 9.91
% Relative Potency Ratio [1]: 8.8
pEC50 [2]: 9.26
SMILES: CC(C)C[C@H](NC(=O)[C@H](Cc1c[nH]c2ccccc12)NC(=O)[C@H](CCCNC(=N)N)NC(=O)[C@@H](NC(=O)[C@H](Cc1ccccc1)NC(=O)[C@H](CC(=O)O)NC(=O)[C@H](CCC(N)=O)NC(=O)[C@H](C)NC(=O)[C@H](CCCNC(=N)N)NC(=O)[C@H](CCCCNC(=O)COCCOCCNC(=O)COCCOCCNC(=O)CC[C@H](NC(=O)CCCCCCCCCCCCCCCCCCC(=O)O)C(=O)O)NC(=O)[C@H](CO)NC(=O)[C@H](CCC(=O)O)NC(=O)[C@H](CC(C)C)NC(=O)[C@](C)(Cc1ccccc1)NC(=O)[C@H](CCCCN)NC(=O)[C@H](CO)NC(=O)[C@@H](NC(=O)[C@H](CC(=O)O)NC(=O)[C@H](CO)NC(=O)[C@@H](NC(=O)[C@H](Cc1ccccc1)NC(=O)[C@@H](NC(=O)CNC(=O)[C@H](CCC(N)=O)NC(=O)C(C)(C)NC(=O)[C@@H](N)Cc1c[nH]cn1)[C@@H](C)O)[C@@H](C)O)C(C)C)C(C)C)C(=O)N[C@@H](CC(C)C)C(=O)N[C@@H](CCC(=O)O)C(=O)NC(C)(C)C(=O)N[C@@H](CCCCN)C(=O)O [Peptide 504]

pEC50 [1]: 10.09
% Relative Potency Ratio [1]: 4.2
pEC50 [2]: 9.76
SMILES: CC(C)C[C@H](NC(=O)[C@H](Cc1c[nH]c2ccccc12)NC(=O)[C@H](CCC(N)=O)NC(=O)[C@@H](NC(=O)[C@H](Cc1ccccc1)NC(=O)[C@H](CC(=O)O)NC(=O)[C@H](CCCNC(=N)N)NC(=O)[C@H](C)NC(=O)[C@H](CCCNC(=N)N)NC(=O)[C@H](CCCCNC(=O)COCCOCCNC(=O)COCCOCCNC(=O)CC[C@H](NC(=O)CCCCCCCCCCCCCCCCCCC(=O)O)C(=O)O)NC(=O)[C@@H](NC(=O)[C@H](CC(=O)O)NC(=O)[C@H](CC(C)C)NC(=O)[C@](C)(Cc1ccccc1)NC(=O)[C@H](CCCCN)NC(=O)[C@H](CO)NC(=O)[C@@H](NC(=O)[C@H](CC(=O)O)NC(=O)[C@H](CO)NC(=O)[C@@H](NC(=O)[C@H](Cc1ccccc1)NC(=O)[C@@H](NC(=O)CNC(=O)[C@H](CCC(N)=O)NC(=O)C(C)(C)NC(=O)[C@@H](N)Cc1c[nH]cn1)[C@@H](C)O)[C@@H](C)O)C(C)C)[C@@H](C)O)C(C)C)C(=O)N[C@@H](CC(C)C)C(=O)N[C@@H](CCCNC(=N)N)C(=O)NC(C)(C)C(=O)N[C@@H](C)C(=O)O [Peptide 502] (H-H[Aib]QGTFTSDVSK[αMeF]LDTK([AEEA-AEEA-γGlu-C20 diacid])RARDFVQWLLR[Aib]A-OH; N-terminus assumed)
